Patent publication US6310037A, “Method of controlling protozoan infections using syringomycin-family lipodepsipeptides” (Utah State University, priority 1999, dated 2001)
In brackets after ≈: the same amount, converted by molar mass. Where a SMILES comes first, the peptide text is derived from it. Bridges are numbered along the chain shown (N, C = ends). [ ]: non-standard residue; d: D form. The star is where a group is joined. Asp(3S-OH) = N[C@H](C(=O)O)[C@H](O)C(=O)O; Thr(4-Cl) = N[C@H](C(=O)O)[C@H](O)CCl; X1 = CCCCCCCCC[C@@H](O)CC(=O)*; dDab = NCC[C@@H](N)C(=O)O; Dab = NCC[C@H](N)C(=O)O; Dhb = C/C=C(\N)C(=O)O

Columns and labels:
BFTE cells = experiment: Toxic effect of Syr-E on BFTE host cells at pH 6.3 (neutral red assay, visual observation); assay type: cell-based, bovine
Experimental: Primary BFTE cell cultures were prepared from bovine fallopian tubes (FT). Fat was trimmed from the serosal surfaces, mucus was gently squeezed from the lumens, and FT were decontaminated by being submerged in 70% ethanol for 30 seconds. The FT were then transferred to sterile culture petri dishes containing HBSS and washed twice. The BFTE cells were harvested either by flushing the FT with HBSS, using a 10 ml syringe equipped with a mouse feeding needle, or by opening the FT lengthwise with scissors and scraping the mucosal surfaces. The BFTE cells were subsequently washed in HBSS by centrifugation at 200×g (force of gravity) for 10 minutes, planted in 75-cm^2 flasks containing RPMI 1640 and cultured in a 5% CO2 incubator at 37° C. for 72 to 120 hours. When the cell lines reached confluency, they were trypsinized, split, and planted onto cover slips positioned on the bottoms of individual wells in 24-well tissue culture plates. When cells reached 80% confluency, they were inoculated with either 10^5 oocysts or 4×10^5 sporozoites per well. Plates were then maintained at 37° C. in a candle jar environment (17% O2, 3% CO2, 80% N2). Growth medium was changed in each well every 72 hours. In wells inoculated with oocysts, the medium was first changed at 24 hours to remove any unexcysted oocysts.
Neutral red assay was used to measure viewable cell damage, such as obvious plaque forming and cell peeling. Briefly, 0.1 ml of neutral red was directly added to supernatant in each well of 96-well plates at the termination of the culture. Following 1-hr incubation at 37°C., the supernatant mixture from each well was discarded and cells at the bottom of the wells were rinsed twice with PBS. A volume of 0.2 ml/well extract buffer was added and the content in each well was well mixed prior to 30 min. incubation in the dark at 25°C. cytotoxicity was quantitatively read using a Microplate Autoreader (Bio-Tek Instruments, Inc., Winooski, Vt.) with a wavelength set at 540 nm.
Samples were collected on day 2 post inoculation. Each group consisted of both uninfected (empty bar) and C. parvum infected (solid bar) subgroups. In group 1, the medium pH was adjusted to 7.2, no Syr-E was used, and the cytotoxicity of the uninfected subgroup set to zero percent. Medium pH in groups 2-8 was adjusted to 6.3 and groups 3-8 received Syr-E treatments at 1, 2, 4, 8, 16, and 32 ,g/ml, respectively. Data are presented as the means +/- standard error of the mean. The cytotoxic effect increased from approximately 40% to 60% as Syr-E concentrations were elevated from 1 to 16 μg/ml, presenting a dose-dependent response. […] BFTE cells were 98% destroyed when Syr-E concentration reached 32 μg/ml at pH 6.3.

P. falciparum D6 = assay type: cell-based; conditions: D6 isolate, pH 7.0, 66 hour incubation
Source text: (§1) P. falciparum used in this study were two well characterized clones, W2 and D6, as described in Oduola, A. M. et al., Plasmodium falciparum: cloning by single-erythrocyte micromanipulation and heterogeneity in vitro; Exp. Parasitol. 66, 86-95 (1988), the contents of which are incorporated herein by this reference. W2 is a clone of the Indochina I isolate and is resistant to chloroquine and pyrimethamine, but susceptible to mefloquine. D6 is a clone from the Sierra I/UNC isolate and is susceptible to chloroquine and pyrimethamine, but has reduced susceptibilities to mefloquine and halofantrine.
(§2) The susceptibility of P. falciparum to Syr-E was studied using a modified antimalarial drug susceptibility screen following the procedures published by Desjardins et al., Quantitative assessment of antimalarial activity in vitro by semiautomated microdilution technique (1979), with modifications developed by Milhous et al., In vitro strategies for circumventing antimalarial drug resistance, Prog. […]
(§3) Syr-E was dissolved directly in dimethylsulfoxide (DMSO) and diluted 400 fold with complete culture media and started at a highest concentration of 50,000 ng/ml. […] The filter mats were then counted in a scintillation counter and the data downloaded with custom, automated analysis software (developed at the Walter Reed Army Institute of Research). […]

P. falciparum W2 = assay type: cell-based; conditions: W2 isolate, pH 7.0, 66 hour incubation
Source text: as §1, §2, §3

With `C/C=C1\NC(=O)[C@H](Cc2ccccc2)NC(=O)[C@H](CCCNC(=N)N)NC(=O)[C@H](CCN)NC(=O)[C@@H](CCN)NC(=O)[C@@H](CO)NC(=O)[C@@H](NC(=O)C[C@H](O)CCCCCCCCC)COC(=O)[C@H]([C@H](O)CCl)NC(=O)[C@H]([C@H](O)C(=O)O)NC1=O` [Syr-E, Syringomycin-E] (X1-S[dS][dDab][Dab]RF[Dhb][Asp(3S-OH)][Thr(4-Cl)]; ester 1-C) the “cytotoxic effect (neutral red assay)” value (BFTE cells; Syr-E 1 μg/ml, BFTE cells, pH 6.3, day 2 post inoculation) was “approximately 40%”, the “cytotoxic effect (neutral red assay)” value (BFTE cells; Syr-E 16 μg/ml, BFTE cells, pH 6.3, day 2 post inoculation) was roughly 60% and the “BFTE cells destroyed (neutral red assay)” value (BFTE cells; Syr-E 32 μg/ml, pH 6.3, day 2 post inoculation) was 98%. For the same compound, the visual cell damage (BFTE cells; Syr-E 0.5-9.0 μg/ml, BFTE cells, pH 6.3) was “Visual cell plaques were observed”, the IC50 (P. falciparum D6) was 3.03 µg/mL (≈ 2.47 µM) and the IC50 (P. falciparum W2) was 3.23 µg/mL (≈ 2.64 µM).
